SMILES strings stand for the structures. Read-outs that look alike come from different tables or passages of the source.

For test [1], the target named is T1, human ERα LBD (Homo sapiens, UniProt P03372).
T1 sequence (P03372 311-547 limits assumed): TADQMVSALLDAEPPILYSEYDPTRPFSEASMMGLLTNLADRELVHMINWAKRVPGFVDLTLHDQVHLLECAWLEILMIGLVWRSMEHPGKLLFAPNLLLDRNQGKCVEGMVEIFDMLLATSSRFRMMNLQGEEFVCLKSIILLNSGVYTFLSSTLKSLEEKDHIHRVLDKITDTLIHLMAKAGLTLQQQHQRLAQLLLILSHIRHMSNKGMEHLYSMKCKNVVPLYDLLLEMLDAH
Description: Competitive fluorescence polarization binding assay, ERα. As to conditions: for RBA ERα: IC50 estradiol/IC50 compound × 100, estradiol = 100%; for α/β ratio: ratio of RBA ERα to RBA ERβ.

The target of test [2] is human ERβ LBD (Homo sapiens, UniProt Q92731). Description: Competitive fluorescence polarization binding assay, ERβ. As to conditions: for RBA ERβ: IC50 estradiol/IC50 compound × 100, estradiol = 100%.
Sequence of human ERβ LBD (Q92731 264-498 limits assumed): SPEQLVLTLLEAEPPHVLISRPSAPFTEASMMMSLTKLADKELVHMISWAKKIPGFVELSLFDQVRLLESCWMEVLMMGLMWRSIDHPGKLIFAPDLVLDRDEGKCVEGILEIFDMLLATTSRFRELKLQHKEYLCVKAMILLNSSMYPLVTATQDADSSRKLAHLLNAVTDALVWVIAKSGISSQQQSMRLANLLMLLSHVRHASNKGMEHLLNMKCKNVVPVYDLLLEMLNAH
Test [3] relates to MCF-7 cells. Description: Cell viability assay. As to conditions: Homo sapiens, MCF7, 72 h, read-out: MCF-7 IC50. It is filed as cell-based, human.
The subject of test [4] is T-47D cells. Description: Cell viability assay. It is filed as cell-based, human. As to conditions: Homo sapiens, T47D, 72 h, read-out: T-47D IC50.
The test system of test [5] is T-47D^D538G cells. Description: Cell viability assay. As to conditions: Homo sapiens, 72 h, read-out: T-47D^D538G IC50. It is filed as cell-based, human.
Test [6] concerns T-47D^Y537S cells. Description: Cell viability assay. In kind it is cell-based, human. As to conditions: Homo sapiens, 72 h, read-out: T-47D^Y537S IC50.

Broadly, the IC50 is the midpoint of a concentration-inhibition curve. Consider `C=CC(=O)Nc1ccc(OS(=O)(=O)C2CC3OC2C(c2ccc(O)cc2)=C3c2ccc(O)cc2)cc1` (stereo not shown) [Compound 26a, 4-Acrylamidophenyl-5,6-bis(4-hydroxyphenyl)-7-oxabicyclo[2.2.1]hept-5-ene-2-sulfonate], for which the “RBA ERα” value in test [1] turned out to be 8.04 ± 0.87%. In addition, the α/β ratio in test [1] is given as 2.08. In test [2], the “RBA ERβ” value is 3.86 ± 0.34%. For the same compound, the IC50 in test [3] was 7.72 ± 0.64 µM; in test [4], over 31 µM; in test [5] it was over 31 µM; in test [6], 27.2 ± 0.73 µM.

The Ki is the dissociation constant of the complex between target and ligand, obtained from inhibition or displacement. As for `C/C=C/C(=O)Nc1ccc(OS(=O)(=O)C2CC3OC2C(c2ccc(O)cc2)=C3c2ccc(O)cc2)cc1` (stereo not shown) [Compound 26b, 4-((E)-But-2-enamido)phenyl-5,6-bis(4-hydroxyphenyl)-7-oxabicyclo[2.2.1]hept-5-ene-2-sulfonate], the Ki in test [1] was 0.00058 µM; in test [2], 0.0167 µM. Besides, the “RBA ERα” value in test [1] worked out at 4.77 ± 0.16%. For the same compound, the α/β ratio in test [1] is reported as 11.93. In addition, the “RBA ERβ” value in test [2] came out at 0.40 ± 0.05%. The IC50 is 9.18 ± 0.95 µM in test [3], 19.4 ± 0.54 µM in test [4], over 31 µM in test [5] and over 31 µM in test [6].

In the case of `CC(C)=CC(=O)Nc1ccc(OS(=O)(=O)C2CC3OC2C(c2ccc(O)cc2)=C3c2ccc(O)cc2)cc1` (stereo not shown) [Compound 26c, 4-(3-Methylbut-2-enamido)phenyl-5,6-bis(4-hydroxyphenyl)-7-oxabicyclo[2.2.1]hept-5-ene-2-sulfonate], the Ki in test [1] amounted to 0.00084 µM; in test [2], 0.00509 µM. Besides, the “RBA ERα” value in test [1] is recorded as 3.28 ± 0.17%. Besides, the α/β ratio in test [1] is 2.50. The “RBA ERβ” value in test [2] was 1.31 ± 0.66%. The IC50 in test [3] is 3.16 ± 0.63 µM; in test [4], 15.8 ± 0.68 µM; in test [5], 8.75 ± 0.25 µM; in test [6], 12 ± 0.4 µM.

For `C#CC(=O)Nc1ccc(OS(=O)(=O)C2CC3OC2C(c2ccc(O)cc2)=C3c2ccc(O)cc2)cc1` (stereo not shown) [Compound 26d, 4-Propiolamidophenyl-5,6-bis(4-hydroxyphenyl)-7-oxabicyclo[2.2.1]hept-5-ene-2-sulfonate], the figures for the Ki in test [1] and in test [2] were 0.00325 µM and 0.0136 µM, respectively. In test [1], the “RBA ERα” value was 0.85 ± 0.08%. The α/β ratio in test [1] worked out at 1.73. Further, in test [2], the “RBA ERβ” value was 0.49 ± 0.04%. Moreover, the IC50 in test [3] is 1.79 ± 0.4 µM; in test [4], 6.91 ± 0.29 µM; in test [5], 9.33 ± 0.46 µM; in test [6], 8.93 ± 0.25 µM.

Consider `O=C(CCl)Nc1ccc(OS(=O)(=O)C2CC3OC2C(c2ccc(O)cc2)=C3c2ccc(O)cc2)cc1` (stereo not shown) [Compound 26e, 4-(2-Chloroacetamido)phenyl-5,6-bis(4-hydroxyphenyl)-7-oxabicyclo[2.2.1]hept-5-ene-2-sulfonate], for which the Ki turned out to be 0.00271 µM in test [1] and 0.0121 µM in test [2]. In test [1], the “RBA ERα” value amounted to 1.02 ± 0.13%. Also, the α/β ratio in test [1] is 1.85. In test [2], the “RBA ERβ” value was found to be 0.55 ± 0.02%. Further, the IC50 in test [3] was 3.42 ± 0.32 µM; in test [4], 8.2 ± 0.36 µM; in test [5], 7.86 ± 0.37 µM; in test [6] it was 8.85 ± 0.61 µM.

With `O=C(CBr)Nc1ccc(OS(=O)(=O)C2CC3OC2C(c2ccc(O)cc2)=C3c2ccc(O)cc2)cc1` (stereo not shown) [Compound 26f, 4-(2-Bromoacetamido)phenyl-5,6-bis(4-hydroxyphenyl)-7-oxabicyclo[2.2.1]hept-5-ene-2-sulfonate], in test [1], the α/β ratio amounted to 2.08. In addition, the “RBA ERβ” value in test [2] was found to be 3.86 ± 0.34%. Besides, the IC50 is 0.5 ± 0.3 µM in test [3], 9.11 ± 0.21 µM in test [4], over 31 µM in test [5] and over 31 µM in test [6].

For the compound `C=CC(=O)Nc1ccc(C2=C(c3ccc(O)cc3)C3OC2CC3S(=O)(=O)Oc2ccccc2)cc1` (stereo not shown) [Compound 28a, Phenyl-5-(4-acrylamidophenyl)-6-(4-hydroxyphenyl)-7-oxabicyclo[2.2.1]hept-5-ene-2-sulfonate], the Ki in test [1] was 0.00015 µM; in test [2], 0.00561 µM. Also, the “RBA ERα” value in test [1] is on record as 18.55 ± 0.34%. Further, in test [1], the α/β ratio was 15.59. Further, the “RBA ERβ” value in test [2] is reported as 1.19 ± 0.27%. For the same compound, the IC50 was 5.07 ± 0.71 µM in test [3], over 31 µM in test [4], over 31 µM in test [5] and over 31 µM in test [6].

As for `C/C=C/C(=O)Nc1ccc(C2=C(c3ccc(O)cc3)C3OC2CC3S(=O)(=O)Oc2ccccc2)cc1` (stereo not shown) [Compound 28b, Phenyl-5-(4-((E)-but-2-enamido)phenyl)-6-(4-hydroxyphenyl)-7-oxabicyclo[2.2.1]hept-5-ene-2-sulfonate], the Ki in test [1] was determined as 0.0002 µM; in test [2], 0.00064 µM. In test [1], the “RBA ERα” value is listed as 14.08 ± 0.25%. Moreover, the α/β ratio in test [1] was 1.35. Besides, the “RBA ERβ” value in test [2] turned out to be 10.40 ± 0.23%. Also, the IC50 is 0.44 ± 0.11 µM in test [3], 25.6 ± 0.98 µM in test [4], 17.1 ± 0.65 µM in test [5] and over 31 µM in test [6].

`CC(C)=CC(=O)Nc1ccc(C2=C(c3ccc(O)cc3)C3OC2CC3S(=O)(=O)Oc2ccccc2)cc1` (stereo not shown) [Compound 28c, Phenyl-6-(4-hydroxyphenyl)-5-(4-(3-methylbut-2-enamido)phenyl)-7-oxabicyclo[2.2.1]hept-5-ene-2-sulfonate]: the figures for the Ki in test [1] and in test [2] were 0.00012 µM and 0.00741 µM, respectively. In test [1], the “RBA ERα” value is 22.13 ± 0.92%. Moreover, the α/β ratio in test [1] amounted to 24.59. Further, in test [2], the “RBA ERβ” value worked out at 0.90 ± 0.25%. Also, the IC50 in test [3] was 0.35 ± 0.02 µM; in test [4] it was 24.9 ± 0.77 µM; in test [5], 17.6 ± 0.89 µM; in test [6], over 31 µM.

As to `O=C(CCl)Nc1ccc(C2=C(c3ccc(O)cc3)C3CC(S(=O)(=O)Oc4ccccc4)C2O3)cc1` (stereo not shown) [Compound 28d, Phenyl-6-(4-(2-chloroacetamido)phenyl)-5-(4-hydroxyphenyl)-7-oxabicyclo[2.2.1]hept-5-ene-2-sulfonate], the Ki in test [1] was determined as 0.0008 µM; in test [2] it was 0.00725 µM. For the same compound, in test [1], the “RBA ERα” value was 3.46 ± 0.02%. The α/β ratio in test [1] is given as 3.76. In test [2], the “RBA ERβ” value is 0.92 ± 0.17%. Further, the IC50 is 0.66 ± 0.12 µM in test [3], 13.3 ± 0.77 µM in test [4], over 31 µM in test [5] and over 31 µM in test [6].

On to `O=C(CBr)Nc1ccc(C2=C(c3ccc(O)cc3)C3OC2CC3S(=O)(=O)Oc2ccccc2)cc1` (stereo not shown) [Compound 28e, Phenyl-5-(4-(2-bromoacetamido)phenyl)-6-(4-hydroxyphenyl)-7-oxabicyclo[2.2.1]hept-5-ene-2-sulfonate], for which the Ki in test [1] came to 0.00029 µM; in test [2] it was 0.0185 µM. In addition, in test [1], the “RBA ERα” value came to 9.44 ± 0.40%. Besides, in test [1], the α/β ratio is reported as 26.22. For the same compound, the “RBA ERβ” value in test [2] was determined as 0.36 ± 0.03%. Besides, the IC50 in test [3] is 1.1 ± 0.14 µM; in test [4], 19.7 ± 0.32 µM; in test [5], over 31 µM; in test [6], over 31 µM.

As to `CC(C)=CC(=O)Nc1ccc(C2=C(c3ccc(O)cc3)C3CC(S(=O)(=O)Oc4ccc(O)cc4)C2O3)cc1` (stereo not shown) [Compound 28f, 4-Hydroxyphenyl-5-(4-hydroxyphenyl)-6-(4-(3-methylbut-2-enamido)phenyl)-7-oxabicyclo[2.2.1]hept-5-ene-2-sulfonate], the Ki is 0.00035 µM in test [1] and 0.00203 µM in test [2]. Besides, the “RBA ERα” value in test [1] came to 7.93 ± 0.34%. Moreover, in test [1], the α/β ratio came to 2.41. In addition, the “RBA ERβ” value in test [2] stood at 3.29 ± 0.25%. Further, the IC50 was 0.93 ± 0.19 µM in test [3], 8.53 ± 0.12 µM in test [4], over 31 µM in test [5] and 9.11 ± 0.35 µM in test [6].

On to `C=CC(=O)Nc1ccc(C2=C(c3ccc(O)cc3)C3OC2CC3S(=O)(=O)N(CC(F)(F)F)c2ccc(O)cc2)cc1` (stereo not shown) [Compound 29a, N-(4-(3-(4-Hydroxyphenyl)-5-(N-(4-hydroxyphenyl)-N-(2,2,2-trifluoroethyl)sulfamoyl)-7-oxabicyclo[2.2.1]hept-2-en-2-yl)phenyl)acrylamide], for which, in test [1], the “RBA ERα” value is given as 20.03 ± 0.25%. The α/β ratio in test [1] was 2.97. Further, the figures for the inhibition constant Ki in test [1] (read-out: Ki ERα) and in test [2] (read-out: Ki ERβ) were 0.00014 µM and 0.00099 µM, respectively. Moreover, the “RBA ERβ” value in test [2] is recorded as 6.74 ± 0.21%. In addition, the IC50 was 0.18 ± 0.05 µM in test [3], 2.85 ± 0.29 µM in test [4], 5.55 ± 0.24 µM in test [5] and over 31 µM in test [6].

Regarding `C/C=C/C(=O)Nc1ccc(C2=C(c3ccc(O)cc3)C3OC2CC3S(=O)(=O)N(CC(F)(F)F)c2ccc(O)cc2)cc1` (stereo not shown) [Compound 29b, (E)-N-(4-(3-(4-Hydroxyphenyl)-5-(N-(4-hydroxyphenyl)-N-(2,2,2-trifluoroethyl)sulfamoyl)-7-oxabicyclo[2.2.1]hept-2-en-2-yl)phenyl)but-2-enamide], the figures for the Ki in test [1] and in test [2] were 0.00014 µM and 0.0106 µM, respectively. The “RBA ERα” value in test [1] stood at 19.82 ± 0.19%. In addition, the α/β ratio in test [1] was 31.46. The “RBA ERβ” value in test [2] is on record as 0.63 ± 0.14%. Besides, the IC50 was 0.36 ± 0.04 µM in test [3], 5.12 ± 0.33 µM in test [4], over 31 µM in test [5] and over 31 µM in test [6].

The values are drawn from article PMC10692362 (Acta Pharmaceutica Sinica. B, 2023).
